Experiments:
Format in all cases: cell-based
[1] = target: T1, WEE1 (Homo sapiens, UniProt P30291+Q96SW2); assay: WEE1-ePL degradation assay (293T-LentiX, InCELL Hunter luminescence, 4 hr); conditions: for DC50: LentiX-HEK293T cells expressing WEE1-ePL, 4 hr incubation, read-out: 293T-LentiX WEE1-ePL Degradation 4 hr EC50; for 293T-LentiX WEE1-ePL Degradation 4 hr YMin (%): lower limit of fit, % of DMSO control signal remaining
T1 construct: C-terminal ePL-tagged (DiscoverX, Fremont, CA) full-length WEE1 expression construct; expressed in transfected cells; host or cells: LentiX-HEK293T (Invitrogen), lentivirally transduced; the cells also over-express GSPT1-GN
Method in brief: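 EC50 comes from a four-parameter logistic fit of ePL luminescence (InCELL Hunter), with DMSO control defining Ymax. Compounds ran as 10-point 3-fold dilutions from 1 or 10 µM for 4 h at 37 °C. Cells were HEK293T-LentiX with ePL-tagged full-length WEE1 and over-expressed Cereblon-resistant GSPT1-GN.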

[2] = system: MKN45 cells; assay: MKN45 cell proliferation assay (Cell-Titer-Glo, 120 hr); conditions: for EC50: Homo sapiens, MKN-45, 120 h, read-out: MKN45 Cell Prolif. 120 hr EC50; for MKN45 Cell Prolif. 120 hr YMin (%): minimal percent of DMSO control observed
Method in brief: (§1)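 Growth inhibition was read as CellTiter-Glo luminescence after 120 h at 37 °C in RPMI/10% FBS, with 400 MKN45 or 800 MDA-MB-231 cells seeded per well. Compounds were tested in 10-point half-log series starting at 1 or 10 uM (0.1% DMSO), in triplicate for MKN45 and duplicate for MDA-MB-231. EC50 values are four-parameter fits to %DMSO control, and Ymin-obs is the minimal observed %DMSO.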

[3] = system: MDA-MB-231 cells; assay: MDA-MB-231 cell proliferation assay (Cell-Titer-Glo, 120 hr); conditions: for EC50: Homo sapiens, MDA-MB-231, 120 h, read-out: MDA-MB 231 Cell Prolif. 120 hr EC50; for MDA-MB 231 Cell Prolif. 120 hr YMin (%): minimal percent of DMSO control observed
Method in brief: as §1

T1 sequence (P30291 whole entry): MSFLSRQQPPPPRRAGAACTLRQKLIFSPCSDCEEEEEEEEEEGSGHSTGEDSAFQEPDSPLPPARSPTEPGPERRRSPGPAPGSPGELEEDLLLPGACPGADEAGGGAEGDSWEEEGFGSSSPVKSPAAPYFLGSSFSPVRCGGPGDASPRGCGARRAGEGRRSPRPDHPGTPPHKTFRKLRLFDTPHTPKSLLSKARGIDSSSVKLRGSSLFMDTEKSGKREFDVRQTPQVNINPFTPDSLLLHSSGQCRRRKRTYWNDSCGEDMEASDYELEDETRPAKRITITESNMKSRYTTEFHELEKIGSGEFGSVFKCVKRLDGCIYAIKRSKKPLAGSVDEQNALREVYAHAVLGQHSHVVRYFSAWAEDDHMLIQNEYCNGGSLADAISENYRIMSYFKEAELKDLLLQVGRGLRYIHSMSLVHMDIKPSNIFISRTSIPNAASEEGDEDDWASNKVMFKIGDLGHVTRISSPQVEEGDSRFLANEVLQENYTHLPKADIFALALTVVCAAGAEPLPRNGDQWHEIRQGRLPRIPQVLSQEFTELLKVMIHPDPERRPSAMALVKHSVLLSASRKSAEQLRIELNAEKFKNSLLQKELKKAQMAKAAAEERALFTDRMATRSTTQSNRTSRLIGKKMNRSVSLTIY
T1 sequence (Q96SW2 whole entry): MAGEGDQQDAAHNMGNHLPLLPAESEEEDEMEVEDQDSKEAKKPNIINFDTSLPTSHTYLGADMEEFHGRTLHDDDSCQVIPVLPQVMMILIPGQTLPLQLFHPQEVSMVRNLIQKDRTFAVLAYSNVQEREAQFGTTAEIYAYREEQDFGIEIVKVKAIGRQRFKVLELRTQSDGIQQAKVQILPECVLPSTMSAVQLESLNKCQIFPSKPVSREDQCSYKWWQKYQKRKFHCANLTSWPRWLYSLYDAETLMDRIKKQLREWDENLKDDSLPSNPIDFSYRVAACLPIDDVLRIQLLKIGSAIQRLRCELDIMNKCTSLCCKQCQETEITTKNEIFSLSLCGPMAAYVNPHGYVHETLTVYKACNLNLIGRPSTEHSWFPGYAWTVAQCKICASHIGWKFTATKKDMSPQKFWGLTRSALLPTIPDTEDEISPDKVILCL
T1 sequence (Q16531 whole entry partner): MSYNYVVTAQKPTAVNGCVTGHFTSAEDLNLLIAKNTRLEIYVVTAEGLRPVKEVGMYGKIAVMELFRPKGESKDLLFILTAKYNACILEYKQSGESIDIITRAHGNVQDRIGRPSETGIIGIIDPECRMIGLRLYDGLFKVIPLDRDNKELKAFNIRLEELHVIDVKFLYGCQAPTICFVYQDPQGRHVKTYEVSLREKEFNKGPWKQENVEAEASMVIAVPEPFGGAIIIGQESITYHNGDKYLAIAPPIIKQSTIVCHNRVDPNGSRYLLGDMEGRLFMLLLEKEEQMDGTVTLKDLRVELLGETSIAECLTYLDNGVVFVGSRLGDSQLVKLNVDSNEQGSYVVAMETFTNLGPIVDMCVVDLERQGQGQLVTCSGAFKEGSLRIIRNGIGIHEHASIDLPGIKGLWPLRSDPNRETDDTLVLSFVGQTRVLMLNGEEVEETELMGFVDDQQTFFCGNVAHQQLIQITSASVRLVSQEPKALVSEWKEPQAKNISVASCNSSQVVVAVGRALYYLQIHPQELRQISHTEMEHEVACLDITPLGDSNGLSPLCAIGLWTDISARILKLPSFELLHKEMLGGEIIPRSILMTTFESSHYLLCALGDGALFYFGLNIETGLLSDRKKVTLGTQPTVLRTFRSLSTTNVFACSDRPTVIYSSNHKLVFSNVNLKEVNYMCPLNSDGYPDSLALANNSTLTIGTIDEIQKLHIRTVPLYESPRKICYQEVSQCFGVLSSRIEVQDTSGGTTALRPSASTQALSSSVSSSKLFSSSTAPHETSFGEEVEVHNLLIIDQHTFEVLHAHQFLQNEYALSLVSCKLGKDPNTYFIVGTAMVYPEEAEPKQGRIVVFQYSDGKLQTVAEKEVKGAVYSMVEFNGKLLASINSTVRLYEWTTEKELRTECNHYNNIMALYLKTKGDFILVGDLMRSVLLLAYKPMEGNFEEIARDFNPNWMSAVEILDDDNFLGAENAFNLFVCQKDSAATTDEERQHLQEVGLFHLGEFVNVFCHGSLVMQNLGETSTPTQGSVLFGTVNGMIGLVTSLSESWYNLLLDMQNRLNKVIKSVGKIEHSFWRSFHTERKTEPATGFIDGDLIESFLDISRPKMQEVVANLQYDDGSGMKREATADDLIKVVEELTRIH

DC50 [1] | 293T-LentiX WEE1-ePL Degradation 4 hr YMin (%) [1] | EC50 [2] | EC50 [3] | Compound | MKN45 Cell Prolif. 120 hr YMin (%) [2] | MDA-MB 231 Cell Prolif. 120 hr YMin (%) [3]
– | 25.3% | 1 nM | 5 nM | COC[C@@H]1CN(Cc2ncc3cc(N4CCOCC4)ccc3c2F)C[C@H]1Oc1ccc2c(c1)CN([C@H]1CCC(=O)NC1=O)C2=O [Example 71, (3S)-3-(5-{[(3S,4S)-1-{[4-fluoro-7-(morpholin-4-yl)isoquinolin-3-yl]methyl}-4-(methoxymethyl)pyrrolidin-3-yl]oxy}-1-oxo-2,3-dihydro-1H-isoindol-2-yl)piperidine-2,6-dione] | 8.7% | 26.6%
3 nM | 28.5% | 2 nM | 51 nM | COC[C@@H]1CN(Cc2cc(F)c3nc(N4CCN(C(C)=O)C5(COC5)C4)ncc3c2)C[C@H]1Oc1ccc2c(c1)CN([C@H]1CCC(=O)NC1=O)C2=O [Example 86, (S)-3-(5-(((3S,4S)-1-((2-(5-acetyl-2-oxa-5,8-diazaspiro[3.5]nonan-8-yl)-8-fluoroquinazolin-6-yl)methyl)-4-(methoxymethyl)pyrrolidin-3-yl)oxy)-1-oxoisoindolin-2-yl)piperidine-2,6-dione] | 16.9% | 18.4%
53 nM | 31.5% | 35 nM | 278 nM | COC[C@@H]1CN(Cc2cc(F)c3nc(C4CN(C(C)=O)C4)ncc3c2)C[C@H]1Oc1ccc2c(c1)CN([C@H]1CCC(=O)NC1=O)C2=O [Example 45, (3S)-3-(5-{[(3S,4S)-1-{[2-(1-acetylazetidin-3-yl)-8-fluoroquinazolin-6-yl]methyl}-4-(methoxymethyl)pyrrolidin-3-yl]oxy}-1-oxo-2,3-dihydro-1H-isoindol-2-yl)piperidine-2,6-dione] | 13.4% | 52.6%
5 nM | 31.1% | 6 nM | 213 nM | COC[C@@H]1CN(Cc2cc(F)c3nc(C(=O)N(C)C)ccc3c2)C[C@H]1Oc1ccc2c(c1)CN([C@H]1CCC(=O)NC1=O)C2=O [Example 58, 6-{[(3S,4S)-3-({2-[(3S)-2,6-dioxopiperidin-3-yl]-1-oxo-2,3-dihydro-1H-isoindol-5-yl}oxy)-4-(methoxymethyl)pyrrolidin-1-yl]methyl}-8-fluoro-N,N-dimethylquinoline-2-carboxamide] | 11.2% | 28.1%
1 nM | 28.7% | 1 nM | 14 nM | COC[C@@H]1CN(Cc2cc(F)c3nc(N4CCN(C(C)=O)C5(CC5)C4)ccc3c2)C[C@H]1Oc1ccc2c(c1)CN([C@H]1CCC(=O)NC1=O)C2=O [Example 92, (3S)-3-(5-{[(3S,4S)-1-[(2-{4-acetyl-4,7-diazaspiro[2.5]octan-7-yl}-8-fluoroquinolin-6-yl)methyl]-4-(methoxymethyl)pyrrolidin-3-yl]oxy}-1-oxo-2,3-dihydro-1H-isoindol-2-yl)piperidine-2,6-dione] | 10.9% | 21.4%
2 nM | 31.4% | 3 nM | 15 nM | COC[C@@H]1CN(Cc2cc(F)c3nc(N4CCC45COC5)ncc3c2)C[C@H]1Oc1ccc2c(c1)CN([C@H]1CCC(=O)NC1=O)C2=O [Example 74, (3S)-3-(5-{[(3S,4S)-1-[(8-fluoro-2-{6-oxa-1-azaspiro[3.3]heptan-1-yl}quinazolin-6-yl)methyl]-4-(methoxymethyl)pyrrolidin-3-yl]oxy}-1-oxo-2,3-dihydro-1H-isoindol-2-yl)piperidine-2,6-dione] | 10.6% | 55.8%
1 nM | 30.2% | 1 nM | 9 nM | COC[C@@H]1CN(Cc2ccc3nc(N4CCN(C(C)=O)C5(CC5)C4)ccc3c2)C[C@H]1Oc1ccc2c(c1)CN([C@H]1CCC(=O)NC1=O)C2=O [Example 89, (3S)-3-(5-{[(3S,4S)-1-[(2-{4-acetyl-4,7-diazaspiro[2.5]octan-7-yl}quinolin-6-yl)methyl]-4-(methoxymethyl)pyrrolidin-3-yl]oxy}-1-oxo-2,3-dihydro-1H-isoindol-2-yl)piperidine-2,6-dione] | 8.4% | 16.8%

Second part, the compound before the results:

Compound | DC50 [1] | 293T-LentiX WEE1-ePL Degradation 4 hr YMin (%) [1] | EC50 [2] | EC50 [3] | MKN45 Cell Prolif. 120 hr YMin (%) [2] | MDA-MB 231 Cell Prolif. 120 hr YMin (%) [3]
COC[C@@H]1CN(Cc2cc3ccc(C4CCOCC4)nc3cn2)C[C@H]1Oc1ccc2c(c1)CN([C@H]1CCC(=O)NC1=O)C2=O [Example 135, (3S)-3-(5-{[(3S,4S)-4-(methoxymethyl)-1-{[2-(oxan-4-yl)-1,7-naphthyridin-6-yl]methyl}pyrrolidin-3-yl]oxy}-1-oxo-2,3-dihydro-1H-isoindol-2-yl)piperidine-2,6-dione] | 1 nM | 35.7% | 1 nM | 31 nM | 8.8% | 55.6%
COC[C@@H]1CN(Cc2cc(F)c3ncc(C4CCOCC4)cc3c2)C[C@H]1Oc1ccc2c(c1)CN([C@H]1CCC(=O)NC1=O)C2=O [Example 109, (3S)-3-(5-{[(3S,4S)-1-{[8-fluoro-3-(oxan-4-yl)quinolin-6-yl]methyl}-4-(methoxymethyl)pyrrolidin-3-yl]oxy}-1-oxo-2,3-dihydro-1H-isoindol-2-yl)piperidine-2,6-dione] | – | 27.5% | 1 nM | 16 nM | 8.7% | 37.3%
COC[C@@H]1CN(Cc2cc3ccc(C4CCC(O)CC4)cc3cn2)C[C@H]1Oc1ccc2c(c1)CN([C@H]1CCC(=O)NC1=O)C2=O (relative stereo) [Example 51, rel-(S)-3-(5-(((3S,4S)-1-((7-(4-hydroxycyclohexyl)isoquinolin-3-yl)methyl)-4-(methoxymethyl)pyrrolidin-3-yl)oxy)-1-oxoisoindolin-2-yl)piperidine-2,6-dione] | 1 nM | 29.0% | 1 nM | 15 nM | 9.9% | 24.8%
CC(C)C[C@H]1CN(Cc2cc(F)c3nc(C4CCOCC4)ccc3c2)C[C@@H]1Oc1ccc2c(c1)CN([C@H]1CCC(=O)NC1=O)C2=O (relative stereo) [Example 148, (3S)-3-(5-{[(3R*,4S*)-1-{[8-fluoro-2-(oxan-4-yl)quinolin-6-yl]methyl}-4-(2-methylpropyl)pyrrolidin-3-yl]oxy}-1-oxo-2,3-dihydro-1H-isoindol-2-yl)piperidine-2,6-dione] | 1 nM | 28.4% | 3 nM | 207 nM | 9.9% | 74.8%
O=C1CC[C@H](N2Cc3cc(O[C@H]4CCN(Cc5ccc6nc([C@H]7CCO[C@]8(CCOC8)C7)ccc6c5)C4)ccc3C2=O)C(=O)N1 (relative stereo) [Example 23, rel-(3S)-3-(5-(((3S)-1-((2-(2,6-dioxaspiro[4.5]decan-9-yl)quinolin-6-yl)methyl)pyrrolidin-3-yl)oxy)-1-oxoisoindolin-2-yl)piperidine-2,6-dione] | 2 nM | 33.5% | 6 nM | 82 nM | 11.8% | 56.9%
O=C1CC[C@H](N2Cc3cc(O[C@H]4CCN(Cc5ccc6nc([C@@H]7CCO[C@@]8(CCOC8)C7)ccc6c5)C4)ccc3C2=O)C(=O)N1 (relative stereo) [Example 20, rel-(3S)-3-(5-(((3S)-1-((2-(2,6-dioxaspiro[4.5]decan-9-yl)quinolin-6-yl)methyl)pyrrolidin-3-yl)oxy)-1-oxoisoindolin-2-yl)piperidine-2,6-dione] | 1 nM | 30.3% | 5 nM | 101 nM | 11.6% | 60.2%
COC[C@@H]1CN(Cc2cc(F)c3nc(N4C[C@H]5C[C@@H](C4)O5)ccc3c2)C[C@H]1Oc1ccc2c(c1)CN([C@H]1CCC(=O)NC1=O)C2=O [Example 47, (S)-3-(5-(((3S,4S)-1-((2-((1R,5S)-6-oxa-3-azabicyclo[3.1.1]heptan-3-yl)-8-fluoroquinolin-6-yl)methyl)-4-(methoxymethyl)pyrrolidin-3-yl)oxy)-1-oxoisoindolin-2-yl)piperidine-2,6-dione] | 1 nM | 28.7% | 1 nM | 34 nM | 9.8% | 30.0%

From patent publication US20250197374A1, “WEE1 DEGRADING COMPOUNDS AND USES THEREOF” (BRISTOL-MYERS SQUIBB COMPANY, priority 2023, published 2025)
